Experimental data from patent publication US8906928B2, “Substituted pyrazolo-pyrrolo-pyridine-dione compounds” (ArQule, Inc., priority 2009, dated 2014).

Key:
Type in all cases: cell-based
DLD-1 = assay: MTS assay (cell growth inhibition), DLD-1; settings: DLD-1 cells, 72 hours incubation with test compound; concentration not given
Summary of the method: (§1)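 First, seed 3000 cells per well in low-serum (1% FBS) DMEM and culture 18 h. Next, add compounds prepared at 300× in DMSO and diluted 1:40 in DMEM; incubate 72 h. Finally, add MTS/PMS for 4 h and measure absorbance at 492 nm.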

Kato III = assay: MTS assay (cell growth inhibition), Kato III; settings: Kato III cells, 72 hours incubation with test compound; concentration not given
Summary of the method: as §1

MDA-MB = assay: MTS assay (cell growth inhibition), MDA-MB; settings: MDA-MB cells, 72 hours incubation with test compound; concentration not given
Summary of the method: as §1

NCI-H1299 = assay: MTS assay (cell growth inhibition), NCI-H1299; settings: NCI-H1299 cells, 72 hours incubation with test compound; concentration not given
Summary of the method: as §1

PACA-2 = assay: MTS assay (cell growth inhibition), PACA-2; settings: PACA-2 cells, 72 hours incubation with test compound; concentration not given
Summary of the method: as §1

PC-3 = assay: MTS assay (cell growth inhibition), PC-3; settings: PC-3 cells, 72 hours incubation with test compound; concentration not given
Summary of the method: as §1

Question: With `COc1ccc(CN2C(=O)c3cnc4[nH]ncc4c3C2=O)c(Cl)c1` [Example 109, 7-(2-chloro-4-methoxybenzyl)pyrazolo[3,4-b]pyrrolo[3,4-d]pyridine-6,8(3H,7H)-dione] as the molecule, how does the “MTS CELL KILL DATA (% INHIBITION) DLD-1” value (DLD-1) read?
Answer: A (A = 80-100% INHIBITION)

Question: What about the “MTS CELL KILL DATA (% INHIBITION) Kato III” value (Kato III) of the same molecule?
Answer: A (A = 80-100% INHIBITION)

Question: What about the “MTS CELL KILL DATA (% INHIBITION) MDA-MB” value (MDA-MB) of the same molecule?
Answer: A (A = 80-100% INHIBITION)

Question: What about the “MTS CELL KILL DATA (% INHIBITION) NCI-H1299” value (NCI-H1299) of the same molecule?
Answer: A (A = 80-100% INHIBITION)

Question: What about the “MTS CELL KILL DATA (% INHIBITION) PACA-2” value (PACA-2) of the same molecule?
Answer: A (A = 80-100% INHIBITION)

Question: What about the “MTS CELL KILL DATA (% INHIBITION) PC-3” value (PC-3) of the same molecule?
Answer: A (A = 80-100% INHIBITION)

Question: What does the source list for `O=C1c2cnc3[nH]ncc3c2C(=O)N1Cc1ccccc1I` [Example 111, 7-(2-iodobenzyl)pyrazolo[3,4-b]pyrrolo[3,4-d]pyridine-6,8(3H,7H)-dione]?
Answer: MTS CELL KILL DATA (% INHIBITION) DLD-1 (DLD-1): C (C = <50% INHIBITION); MTS CELL KILL DATA (% INHIBITION) Kato III (Kato III): C (C = <50% INHIBITION); MTS CELL KILL DATA (% INHIBITION) MDA-MB (MDA-MB): C (C = <50% INHIBITION); MTS CELL KILL DATA (% INHIBITION) NCI-H1299 (NCI-H1299): C (C = <50% INHIBITION); MTS CELL KILL DATA (% INHIBITION) PACA-2 (PACA-2): C (C = <50% INHIBITION); MTS CELL KILL DATA (% INHIBITION) PC-3 (PC-3): C (C = <50% INHIBITION)

Question: For `CCCC(C)CCN1C(=O)c2cnc3[nH]ncc3c2C1=O` (stereo not drawn) [Example 114, 7-(3-methylhexyl)pyrazolo[3,4-b]pyrrolo[3,4-d]pyridine-6,8(3H,7H)-dione], which “MTS CELL KILL DATA (% INHIBITION) DLD-1” value (DLD-1) is on record?
Answer: C (C = <50% INHIBITION)

Question: What about the “MTS CELL KILL DATA (% INHIBITION) Kato III” value (Kato III) of the same molecule?
Answer: C (C = <50% INHIBITION)

Question: What about the “MTS CELL KILL DATA (% INHIBITION) MDA-MB” value (MDA-MB) of the same molecule?
Answer: A (A = 80-100% INHIBITION)

Question: What about the “MTS CELL KILL DATA (% INHIBITION) NCI-H1299” value (NCI-H1299) of the same molecule?
Answer: C (C = <50% INHIBITION)

Question: And the “MTS CELL KILL DATA (% INHIBITION) PACA-2” value (PACA-2)?
Answer: C (C = <50% INHIBITION)

Question: And the “MTS CELL KILL DATA (% INHIBITION) PC-3” value (PC-3)?
Answer: B (B = 50-79% INHIBITION)

Question: `CC(CCN1C(=O)c2cnc3[nH]ncc3c2C1=O)CC(C)(C)C` (stereo not drawn) [Example 117, 7-(3,5,5-trimethylhexyl)pyrazolo[3,4-b]pyrrolo[3,4-d]pyridine-6,8(3H,7H)-dione] was tested. Which “MTS CELL KILL DATA (% INHIBITION) DLD-1” value (DLD-1) did it give?
Answer: C (C = <50% INHIBITION)

Question: What about the “MTS CELL KILL DATA (% INHIBITION) Kato III” value (Kato III) of the same molecule?
Answer: C (C = <50% INHIBITION)

Question: What about the “MTS CELL KILL DATA (% INHIBITION) MDA-MB” value (MDA-MB) of the same molecule?
Answer: A (A = 80-100% INHIBITION)

Question: And the “MTS CELL KILL DATA (% INHIBITION) NCI-H1299” value (NCI-H1299)?
Answer: C (C = <50% INHIBITION)

Question: What about the “MTS CELL KILL DATA (% INHIBITION) PACA-2” value (PACA-2) of the same molecule?
Answer: C (C = <50% INHIBITION)

Question: What about the “MTS CELL KILL DATA (% INHIBITION) PC-3” value (PC-3) of the same molecule?
Answer: A (A = 80-100% INHIBITION)

Question: How did the “MTS CELL KILL DATA (% INHIBITION) DLD-1” value (DLD-1) turn out when `O=C1c2cnc3[nH]ncc3c2C(=O)N1CC1=Cc2ccccc2S1(=O)=O` [Example 119, 7-[(1,1-dioxido-1-benzothien-2-yl)methyl]pyrazolo[3,4-b]pyrrolo[3,4-d]pyridine-6,8(3H,7H)-dione] was run?
Answer: C (C = <50% INHIBITION)

Question: What about the “MTS CELL KILL DATA (% INHIBITION) Kato III” value (Kato III) of the same molecule?
Answer: C (C = <50% INHIBITION)

Question: What about the “MTS CELL KILL DATA (% INHIBITION) MDA-MB” value (MDA-MB) of the same molecule?
Answer: B (B = 50-79% INHIBITION)

Question: What about the “MTS CELL KILL DATA (% INHIBITION) NCI-H1299” value (NCI-H1299) of the same molecule?
Answer: C (C = <50% INHIBITION)

Question: And the “MTS CELL KILL DATA (% INHIBITION) PACA-2” value (PACA-2)?
Answer: C (C = <50% INHIBITION)

Question: What about the “MTS CELL KILL DATA (% INHIBITION) PC-3” value (PC-3) of the same molecule?
Answer: C (C = <50% INHIBITION)

Question: Which results are given for `C[C@H](CN1C(=O)c2cnc3[nH]ncc3c2C1=O)c1ccccc1` [Example 121, 7-[(2S)-2-phenylpropyl]pyrazolo[3,4-b]pyrrolo[3,4-d]pyridine-6,8(3H,7H)-dione]?
Answer: MTS CELL KILL DATA (% INHIBITION) DLD-1 (DLD-1): C (C = <50% INHIBITION); MTS CELL KILL DATA (% INHIBITION) Kato III (Kato III): C (C = <50% INHIBITION); MTS CELL KILL DATA (% INHIBITION) MDA-MB (MDA-MB): B (B = 50-79% INHIBITION); MTS CELL KILL DATA (% INHIBITION) NCI-H1299 (NCI-H1299): C (C = <50% INHIBITION); MTS CELL KILL DATA (% INHIBITION) PACA-2 (PACA-2): C (C = <50% INHIBITION); MTS CELL KILL DATA (% INHIBITION) PC-3 (PC-3): A (A = 80-100% INHIBITION)
